{"source": "patent US20230192772A1", "about": "“ANTIMICROBIAL PEPTIDES AND USES THEREOF” (SORBONNE UNIVERSITE, priority 2016, published 2023)", "format_in_all_cases": "cell-based", "key": {"[1]": {"assay": "Cytotoxic effects on immune cells obtained from mouse bone marrow", "conditions": "mouse immune cells originating from bone marrow, read-out: LC50", "experimental": "The mouse immune cells are obtained from C57BL/6 or Balb/c mouse bone marrow. The peptides are incubated at 37° C., 5% CO2 in the presence of 500,000 immune cells in RPMI medium at varied concentrations for 2 hours. Peptide-free cells are used as the negative control and cells in the presence of DMSO (30%) are used as the positive control. After incubation, the cells are washed then labelled with Trypan blue so as to measure the cell viability by microscope counting. The LC50 is then calculated as being the concentration of DA2N, K12A and DANa peptides inducing the death of 50% of the immune cells."}, "[2]": {"tested_on": "Pseudomonas aeruginosa ATCC 9027", "assay": "MIC/MBC, growth inhibition in liquid medium (Example 2)", "conditions": "Table 2", "from_the_text": "(§1) Escherichia coli (ATCC 8739, ATCC ML35p and P7 BLSE), Pseudomonas aeruginosa (ATCC 9027 and ATCC 27853), Klebsiella oxytoca (CIP 7932), Klebsiella pneumoniae (CIP 52.211), Salmonella enterica (CIP 8297), Yersinia ruckeri (ATCC 29473), Vibrio parahemolyticus (IFREMER 01 01/252), Staphylococcus aureus (ATCC 6538, ST 1065 and MRSA), Staphylococcus epidermidis (BM 3302), Listeria monocytogenes (SOR 100), Enterococcus faecalis (CIP A186, CIP 103015)), Kocuria rhizophila (ATCC 9341), Lactococcus garviae (ATCC 43921), Bacillus subtilis (CIP 52.65).\n(§2) For each strain, a 5 ml pre-culture in LB medium is prepared by inoculating a colony of the bacterial strain of interest. The pre-culture is incubated at 37° C. under stirring overnight. The culture is subcultured (30 µL) in 5 mL. The culture concentration is evaluated by measuring the optical density at 620 nm. The concentration is adjusted by dilution so as to obtain a suspension with an OD of 0.05 at 620 nm.\n(§3) The MIC is determined using a growth inhibition test in liquid medium. The MIC is defined as being the lowest peptide concentration capable of inhibiting the bacterial strain tested, after incubation for 18 h at 37° C. The test was carried out in a sterile microtitration plate containing 96 wells. A series of increasing concentrations of each peptide (0.2 to 100 µM) was prepared beforehand in sterile MilliQ water. In each well, 10 µL of peptide was incubated with 90 µL of bacterial suspension (10^7 cfu/mL) in yeast extract-free LB medium. The microplate was incubated at 37° C. for 18 h. The bacterial growth was evaluated by measuring the OD at 620 nm using a plate reader.\n(§4) The negative growth inhibition control was obtained by replacing the solution containing the peptide by sterile MilliQ water. The positive control suitable for completely inhibiting the growth of the bacterial strains was obtained by replacing the solution containing the peptide by 10 µL of formaldehyde.\n(§5) The results are interpreted by calculating the percentage of bacterial growth in each well according to the formula:\n(§6) %Growth = (OD well - OD of T0)/(OD of T100-OD of T0)*100 where\n(§7) • OD of T100 = OD of growth control (bacterial suspension free from sample under test, 100% growth), • OD of T0 = OD of sterility control (culture medium + bacterium + 10 µL formaldehyde, 0% growth) and • OD well = OD of well for which it is sought to calculate the growth percentage (bacterial suspension + peptide under test).\n(§8) The MBC is defined as being the minimum peptide concentration leaving no surviving bacteria of the inoculum after incubation at 37° C. for 24 hours. This test consists of smearing the contents of the well wherein the peptide has inhibited bacterial growth on a Petri dish (LB agar), followed by incubation for 24 h at 37° C."}, "[3]": {"tested_on": "Klebsiella pneumoniae CIP 5211", "assay": "MIC/MBC, growth inhibition in liquid medium (Example 2)", "conditions": "Table 2", "from_the_text": "as §1, §2, §3, §4, §5, §6, §7, §8"}, "[4]": {"tested_on": "Bacillus subtilis CIP 52.65", "assay": "MIC/MBC, growth inhibition in liquid medium (Example 2)", "conditions": "Table 2", "from_the_text": "as §1, §2, §3, §4, §5, §6, §7, §8"}, "[5]": {"tested_on": "Staphylococcus aureus ATCC 6538", "assay": "MIC/MBC, growth inhibition in liquid medium (Example 2)", "conditions": "Table 2", "from_the_text": "as §1, §2, §3, §4, §5, §6, §7, §8"}, "Escherichia coli ML35p": {"tested_on": "Escherichia coli ML35p", "assay": "MIC/MBC, growth inhibition in liquid medium (Example 2)", "conditions": "Table 2", "from_the_text": "as §1, §2, §3, §4, §5, §6, §7, §8"}, "[6]": {"tested_on": "Staphylococcus epidermidis BM 3302", "assay": "MIC/MBC, growth inhibition in liquid medium (Example 2)", "conditions": "Table 2", "from_the_text": "as §1, §2, §3, §4, §5, §6, §7, §8"}, "[7]": {"tested_on": "Klebsiella oxytoca CIP 7932", "assay": "MIC/MBC, growth inhibition in liquid medium (Example 2)", "conditions": "Table 2", "from_the_text": "as §1, §2, §3, §4, §5, §6, §7, §8"}, "[8]": {"tested_on": "Escherichia coli ATCC 8739", "assay": "MIC/MBC, growth inhibition in liquid medium (Example 2)", "conditions": "Table 2", "from_the_text": "as §1, §2, §3, §4, §5, §6, §7, §8"}, "[9]": {"tested_on": "Kocuria rhizophila ATCC 9341", "assay": "MIC/MBC, growth inhibition in liquid medium (Example 2)", "conditions": "Table 2", "from_the_text": "as §1, §2, §3, §4, §5, §6, §7, §8"}, "Mouse red blood cells": {"tested_on": "Mouse red blood cells", "assay": "Haemolytic activity", "conditions": "results not shown", "experimental": "Mouse or donor blood is washed three times in 10 volumes of PBS at 4° C. by centrifugation at 800 g for 10 minutes. The blood sediment is finally diluted to 4% (v/v) in PBS buffer. The test was carried out as follows: either 10 µM, or 50 µM of peptide was added to 100 µL of red blood cell suspension.\nAfter 1h of incubation at 37° C. followed by centrifugation (800 g, 15 min), the absorbance of the supernatant was measured at 550 nm.\nThe negative control for this test (0% haemolysis) contains 5 µL of PBS buffer instead of the solution containing the peptide and the positive control (100% haemolysis) contains 5 µL of 1% Triton X100 instead of the solution containing the peptide.\nThe haemolytic activity of the antimicrobial peptides was measured as per the protocol described in part 3.1 of Example 3."}, "LC50 on red blood cells": {"assay": "LC50 on red blood cells", "conditions": "C57BL6; Mouse red blood cells", "experimental": "The mouse red blood cells are obtained from C57BL6 mouse bone marrow.\nThe peptides are incubated at 37° C., 5% CO2 in the presence of 500,000 red blood cells in RPMI medium at varied concentrations and at varied times. Peptide-free cells are used as the negative control and cells incubated for 5 min at 50° C. or in the presence of DMSO (30%) are used as the positive control. The LC50 is then calculated as being the concentration of DA2N and DA2NEQ peptides inducing the death of 50% of the red blood cells."}}, "note": "Ends that are not written are not given here.", "data": [{"substance": "ALWKTLLKKVGKVAGKAVLNAVTNMANQN-OH [DA2N]", "values": [{"measurement": "CC50 at 2 hours", "setting": "[1]", "value": 5, "unit": "µM"}, {"measurement": "MBC", "setting": "[2]", "value": 12.5, "unit": "µM"}, {"measurement": "MIC", "setting": "[2]", "value": 12.5, "unit": "µM"}, {"measurement": "MIC", "setting": "[3]", "value": 3.12, "unit": "µM"}, {"measurement": "MBC", "setting": "[4]", "value": 6.25, "unit": "µM"}, {"measurement": "MIC", "setting": "[4]", "value": 6.25, "unit": "µM"}, {"measurement": "MBC", "setting": "[5]", "value": 6.25, "unit": "µM"}, {"measurement": "MIC", "setting": "[5]", "value": 6.25, "unit": "µM"}, {"measurement": "MBC", "setting": "Escherichia coli ML35p", "value": 6.25, "unit": "µM"}, {"measurement": "MIC", "setting": "Escherichia coli ML35p", "value": 3.12, "unit": "µM"}, {"measurement": "MBC", "setting": "[6]", "value": 12.5, "unit": "µM"}, {"measurement": "MIC", "setting": "[6]", "value": 1, "unit": "µM"}, {"measurement": "MBC", "setting": "[7]", "value": 6.25, "unit": "µM"}, {"measurement": "MIC", "setting": "[7]", "value": 3.12, "unit": "µM"}, {"measurement": "MBC", "setting": "[8]", "value": 3.12, "unit": "µM"}, {"measurement": "MIC", "setting": "[8]", "value": 3.12, "unit": "µM"}, {"measurement": "MBC", "setting": "[9]", "value": 3.12, "unit": "µM"}, {"measurement": "MIC", "setting": "[9]", "value": 3.12, "unit": "µM"}, {"measurement": "haemolysis of mouse red blood cells", "setting": "Mouse red blood cells", "value": "do not induce the haemolysis"}, {"measurement": "CC50", "setting": "LC50 on red blood cells", "value": 750, "unit": "µM"}]}, {"substance": "ALWKTLLKKVGKVAGKAVLNAVTNMANQNEQ [DA2NEQ, ALWKTLLKKVGKVAGKAVLNAVTNMANQNEQOH]", "values": [{"measurement": "MBC", "setting": "[2]", "value": 25, "unit": "µM"}, {"measurement": "MIC", "setting": "[2]", "value": 12.5, "unit": "µM"}, {"measurement": "MIC", "setting": "[3]", "value": 3.12, "unit": "µM"}, {"measurement": "MBC", "setting": "[4]", "value": 6.25, "unit": "µM"}, {"measurement": "MIC", "setting": "[4]", "value": 6.25, "unit": "µM"}, {"measurement": "MBC", "setting": "[5]", "value": 12.5, "unit": "µM"}, {"measurement": "MIC", "setting": "[5]", "value": 12.5, "unit": "µM"}, {"measurement": "MBC", "setting": "Escherichia coli ML35p", "value": 6.25, "unit": "µM"}, {"measurement": "MIC", "setting": "Escherichia coli ML35p", "value": 6.25, "unit": "µM"}, {"measurement": "MBC", "setting": "[6]", "value": ">100", "unit": "µM"}, {"measurement": "MIC", "setting": "[6]", "value": ">100", "unit": "µM"}, {"measurement": "MBC", "setting": "[7]", "value": ">100", "unit": "µM"}, {"measurement": "MIC", "setting": "[7]", "value": 12.5, "unit": "µM"}, {"measurement": "MBC", "setting": "[8]", "value": 6.25, "unit": "µM"}, {"measurement": "MIC", "setting": "[8]", "value": 3.12, "unit": "µM"}, {"measurement": "MBC", "setting": "[9]", "value": 6.25, "unit": "µM"}, {"measurement": "MIC", "setting": "[9]", "value": 6.25, "unit": "µM"}, {"measurement": "haemolysis of mouse red blood cells", "setting": "Mouse red blood cells", "value": "do not induce the haemolysis"}, {"measurement": "CC50", "setting": "LC50 on red blood cells", "value": 750, "unit": "µM"}]}]}
